Assay results reported in PubChem BioAssay (NCI).
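Compound exposure: 48 hours, 5 concentrations, 96-well plates. TGI: concentration producing complete growth inhibition.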

How the values were obtained:
Test in all cases: NCI-60 cell line screen, 48 h
786-0 renal = test system: 786-0 renal
A498 renal = test system: A498 renal
A549 NSCLC = test system: A549 NSCLC
ACHN renal = test system: ACHN renal
CAKI-1 renal = test system: CAKI-1 renal
CCRF-CEM leukemia = test system: CCRF-CEM leukemia
DLD-1 colon = test system: DLD-1 colon
DMS 114 small cell lung = test system: DMS 114 small cell lung
DMS 273 small cell lung = test system: DMS 273 small cell lung
EKVX NSCLC = test system: EKVX NSCLC
HCC-2998 colon = test system: HCC-2998 colon
HCT-116 colon = test system: HCT-116 colon
HCT-15 colon = test system: HCT-15 colon
HL-60(TB) leukemia = test system: HL-60(TB) leukemia
HOP-18 NSCLC = test system: HOP-18 NSCLC
HOP-62 NSCLC = test system: HOP-62 NSCLC
HOP-92 NSCLC = test system: HOP-92 NSCLC
HT29 colon = test system: HT29 colon
IGROV1 ovarian = test system: IGROV1 ovarian
K-562 leukemia = test system: K-562 leukemia
KM12 colon = test system: KM12 colon
KM20L2 colon = test system: KM20L2 colon
LOX IMVI melanoma = test system: LOX IMVI melanoma
LXFL 529 NSCLC = test system: LXFL 529 NSCLC
M14 melanoma = test system: M14 melanoma
M19-MEL melanoma = test system: M19-MEL melanoma
MALME-3M melanoma = test system: MALME-3M melanoma
MOLT-4 leukemia = test system: MOLT-4 leukemia
NCI-H226 lung = test system: NCI-H226 lung
NCI-H23 lung = test system: NCI-H23 lung
NCI-H460 lung = test system: NCI-H460 lung
OVCAR-4 ovarian = test system: OVCAR-4 ovarian
OVCAR-5 ovarian = test system: OVCAR-5 ovarian
OVCAR-8 ovarian = test system: OVCAR-8 ovarian
RPMI-8226 leukemia = test system: RPMI-8226 leukemia
RXF 393 renal = test system: RXF 393 renal
RXF-631 renal = test system: RXF-631 renal
SF-268 CNS = test system: SF-268 CNS
SF-295 CNS = test system: SF-295 CNS
SF-539 CNS = test system: SF-539 CNS
SK-MEL-2 melanoma = test system: SK-MEL-2 melanoma
SK-MEL-28 melanoma = test system: SK-MEL-28 melanoma
SK-OV-3 ovarian = test system: SK-OV-3 ovarian
SN12C renal = test system: SN12C renal
SNB-19 CNS = test system: SNB-19 CNS
SNB-75 CNS = test system: SNB-75 CNS
SNB-78 CNS = test system: SNB-78 CNS
SR leukemia = test system: SR leukemia
SW-620 colon = test system: SW-620 colon
TK-10 renal = test system: TK-10 renal
U251 CNS = test system: U251 CNS
UACC-257 melanoma = test system: UACC-257 melanoma
UACC-62 melanoma = test system: UACC-62 melanoma
UO-31 renal = test system: UO-31 renal
COLO 205 colon = test system: COLO 205 colon
NCI-H522 lung = test system: NCI-H522 lung
OVCAR-3 ovarian = test system: OVCAR-3 ovarian
SK-MEL-5 melanoma = test system: SK-MEL-5 melanoma

Compound: CN(C)C(=S)/N=c1\ssc(=Nc2ccccc2)n1C
- TGI (786-0 renal): > 100 µM
- TGI (A498 renal): > 100 µM
- TGI (A549 NSCLC): > 100 µM
- TGI (ACHN renal): > 100 µM
- TGI (CAKI-1 renal): > 100 µM
- TGI (CCRF-CEM leukemia): > 100 µM
- TGI (DLD-1 colon): > 100 µM
- TGI (DMS 114 small cell lung): > 100 µM
- TGI (DMS 273 small cell lung): > 100 µM
- TGI (EKVX NSCLC): > 100 µM
- TGI (HCC-2998 colon): > 100 µM
- TGI (HCT-116 colon): > 100 µM
- TGI (HCT-15 colon): > 100 µM
- TGI (HL-60(TB) leukemia): > 100 µM
- TGI (HOP-18 NSCLC): > 100 µM
- TGI (HOP-62 NSCLC): > 100 µM
- TGI (HOP-92 NSCLC): > 100 µM
- TGI (HT29 colon): > 100 µM
- TGI (IGROV1 ovarian): > 100 µM
- TGI (K-562 leukemia): > 100 µM
- TGI (KM12 colon): > 100 µM
- TGI (KM20L2 colon): > 100 µM
- TGI (LOX IMVI melanoma): > 100 µM
- TGI (LXFL 529 NSCLC): > 100 µM
- TGI (M14 melanoma): > 100 µM
- TGI (M19-MEL melanoma): > 100 µM
- TGI (MALME-3M melanoma): > 100 µM
- TGI (MOLT-4 leukemia): > 100 µM
- TGI (NCI-H226 lung): > 100 µM
- TGI (NCI-H23 lung): > 100 µM
- TGI (NCI-H460 lung): > 100 µM
- TGI (OVCAR-4 ovarian): > 100 µM
- TGI (OVCAR-5 ovarian): > 100 µM
- TGI (OVCAR-8 ovarian): > 100 µM
- TGI (RPMI-8226 leukemia): > 100 µM
- TGI (RXF 393 renal): > 100 µM
- TGI (RXF-631 renal): > 100 µM
- TGI (SF-268 CNS): > 100 µM
- TGI (SF-295 CNS): > 100 µM
- TGI (SF-539 CNS): > 100 µM
- TGI (SK-MEL-2 melanoma): > 100 µM
- TGI (SK-MEL-28 melanoma): > 100 µM
- TGI (SK-OV-3 ovarian): > 100 µM
- TGI (SN12C renal): > 100 µM
- TGI (SNB-19 CNS): > 100 µM
- TGI (SNB-75 CNS): 44.7 µM
- TGI (SNB-78 CNS): > 100 µM
- TGI (SR leukemia): > 100 µM
- TGI (SW-620 colon): > 100 µM
- TGI (TK-10 renal): > 100 µM
- TGI (U251 CNS): > 100 µM
- TGI (UACC-257 melanoma): > 100 µM
- TGI (UACC-62 melanoma): > 100 µM
- TGI (UO-31 renal): > 100 µM

Compound: CN1C(=O)N(C)C2(O)c3ccccc3C(=O)C12O (stereo not given)
- TGI (786-0 renal): > 100 µM
- TGI (A498 renal): > 100 µM
- TGI (A549 NSCLC): > 100 µM
- TGI (ACHN renal): > 100 µM
- TGI (CAKI-1 renal): > 100 µM
- TGI (CCRF-CEM leukemia): > 100 µM
- TGI (COLO 205 colon): > 100 µM
- TGI (DLD-1 colon): > 100 µM
- TGI (DMS 114 small cell lung): > 100 µM
- TGI (DMS 273 small cell lung): > 100 µM
- TGI (EKVX NSCLC): > 100 µM
- TGI (HCC-2998 colon): > 100 µM
- TGI (HCT-116 colon): > 100 µM
- TGI (HCT-15 colon): > 100 µM
- TGI (HOP-18 NSCLC): > 100 µM
- TGI (HOP-62 NSCLC): > 100 µM
- TGI (HT29 colon): > 100 µM
- TGI (IGROV1 ovarian): > 100 µM
- TGI (K-562 leukemia): > 100 µM
- TGI (KM12 colon): > 100 µM
- TGI (KM20L2 colon): > 100 µM
- TGI (LOX IMVI melanoma): > 100 µM
- TGI (LXFL 529 NSCLC): > 100 µM
- TGI (M14 melanoma): > 100 µM
- TGI (M19-MEL melanoma): > 100 µM
- TGI (MALME-3M melanoma): > 100 µM
- TGI (MOLT-4 leukemia): > 100 µM
- TGI (NCI-H226 lung): > 100 µM
- TGI (NCI-H23 lung): > 100 µM
- TGI (NCI-H460 lung): > 100 µM
- TGI (NCI-H522 lung): > 100 µM
- TGI (OVCAR-3 ovarian): > 100 µM
- TGI (OVCAR-4 ovarian): > 100 µM
- TGI (OVCAR-5 ovarian): > 100 µM
- TGI (OVCAR-8 ovarian): > 100 µM
- TGI (RPMI-8226 leukemia): > 100 µM
- TGI (RXF 393 renal): > 100 µM
- TGI (RXF-631 renal): > 100 µM
- TGI (SF-268 CNS): > 100 µM
- TGI (SF-295 CNS): > 100 µM
- TGI (SF-539 CNS): > 100 µM
- TGI (SK-MEL-2 melanoma): > 100 µM
- TGI (SK-MEL-28 melanoma): > 100 µM
- TGI (SK-MEL-5 melanoma): > 100 µM
- TGI (SK-OV-3 ovarian): > 100 µM
- TGI (SN12C renal): > 100 µM
- TGI (SNB-19 CNS): > 100 µM
- TGI (SNB-75 CNS): > 100 µM
- TGI (SNB-78 CNS): > 100 µM
- TGI (SR leukemia): > 100 µM
- TGI (SW-620 colon): > 100 µM
- TGI (TK-10 renal): > 100 µM
- TGI (U251 CNS): > 100 µM
- TGI (UACC-257 melanoma): > 100 µM
- TGI (UACC-62 melanoma): > 100 µM
- TGI (UO-31 renal): > 100 µM
